Experimental findings from PubChem BioAssay (NCI) are described below.

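All cell lines were grown in 96-well plates and treated with compound for 48 hours. The concentration for 50% growth inhibition is given as GI50. The concentration for full growth arrest is given as TGI.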 Bounds are passed on as bounds.

Test systems include SK-OV-3 ovarian; SK-MEL-5 melanoma; OVCAR-5 ovarian; EKVX NSCLC; U251 CNS; KM12 colon; TK-10 renal; SNB-75 CNS; HOP-92 NSCLC; 786-0 renal.
Common to all, as to assay: inhibition of tumour cell growth, NCI panel, 48 h

`CN1CCC(C(=O)Nc2n[nH]c3nnc(-c4ccccc4)cc23)CC1`: the GI50 is 16.6 µM in the assay on SK-OV-3 ovarian; 14.6 µM in the assay on SK-MEL-5 melanoma; > 25 µM with OVCAR-5 ovarian; > 25 µM in the assay with EKVX NSCLC; > 25 µM in the assay with U251 CNS; 19.4 µM in the assay on KM12 colon. In addition, the GI50 in the assay with TK-10 renal is > 25 µM; with SNB-75 CNS it was > 5.22 µM; with HOP-92 NSCLC, 11.3 µM; in the assay on 786-0 renal, > 25 µM. Also, the TGI with SK-OV-3 ovarian, in the assay on SK-MEL-5 melanoma, in the assay with OVCAR-5 ovarian, in the assay with EKVX NSCLC, in the assay on U251 CNS and in the assay on KM12 colon was > 25 µM throughout. The TGI in the assay with TK-10 renal, with SNB-75 CNS, in the assay on HOP-92 NSCLC and in the assay on 786-0 renal was > 25 µM each time.

As for `c1ccc(-c2nc3ccccc3[nH]2)c(OCCCCCOc2ccccc2-c2nc3ccccc3[nH]2)c1`, the GI50 in the assay on SK-OV-3 ovarian was 14.2 µM; in the assay on SK-MEL-5 melanoma it was 6.07 µM; with OVCAR-5 ovarian, 20.2 µM; in the assay on EKVX NSCLC it was 11.8 µM; in the assay on U251 CNS it was 12.5 µM; in the assay with KM12 colon, 15.8 µM. In addition, the GI50 in the assay with TK-10 renal is 13 µM; in the assay on SNB-75 CNS, 8.78 µM; in the assay with HOP-92 NSCLC, 2.55 µM; in the assay on 786-0 renal it was 15.9 µM. Also, the TGI worked out at 34 µM with SK-OV-3 ovarian; 19.5 µM with SK-MEL-5 melanoma; 62.6 µM in the assay on OVCAR-5 ovarian; 32.7 µM with EKVX NSCLC; 25.6 µM in the assay on U251 CNS; 72.4 µM in the assay with KM12 colon. Moreover, the TGI is 30.8 µM with TK-10 renal, 47.4 µM in the assay with SNB-75 CNS, 14.7 µM with HOP-92 NSCLC and 35.3 µM in the assay with 786-0 renal.

In the case of `Cc1nc2sc(C(=O)Nc3cccc(Cl)c3)c(N)c2cc1C(O)c1ccccc1` (stereo not given), the GI50 is 1.22 µM in the assay on SK-OV-3 ovarian; 0.622 µM with SK-MEL-5 melanoma; 2.41 µM in the assay with OVCAR-5 ovarian; 3.39 µM with EKVX NSCLC; 0.584 µM in the assay on U251 CNS; 0.577 µM with KM12 colon. For the same compound, the GI50 is 3.77 µM in the assay with TK-10 renal, 0.243 µM in the assay on SNB-75 CNS, 10.4 µM in the assay on HOP-92 NSCLC and 2.47 µM in the assay on 786-0 renal. Further, the TGI with SK-OV-3 ovarian was 16.1 µM; in the assay on SK-MEL-5 melanoma, 2.2 µM; in the assay with OVCAR-5 ovarian it was 18.1 µM; in the assay with EKVX NSCLC it was 26.1 µM; in the assay with U251 CNS it was > 100 µM; with KM12 colon, 24.5 µM. Further, the TGI is 33.6 µM with TK-10 renal, 12.3 µM in the assay on SNB-75 CNS, 31.3 µM in the assay on HOP-92 NSCLC and 20.7 µM with 786-0 renal.

Take `CCOc1ccc(N=Nc2c(-c3ccccc3)nn(C(=O)CC(=O)Nc3ccccc3Cl)c2-c2ccccc2)cc1`: the TGI with SK-OV-3 ovarian, with SK-MEL-5 melanoma, in the assay with OVCAR-5 ovarian, in the assay on EKVX NSCLC, with U251 CNS and with KM12 colon was > 100 µM throughout. Moreover, the TGI is > 100 µM in the assay with TK-10 renal, 90.6 µM with SNB-75 CNS, > 100 µM with HOP-92 NSCLC and > 100 µM in the assay on 786-0 renal.

`CC(C)OC(=O)c1cc(NC(=S)OC(C)C)ccc1Cl`: the TGI was > 62.6 µM in the assay with SK-OV-3 ovarian; 33.1 µM in the assay with SK-MEL-5 melanoma; > 63.1 µM with OVCAR-5 ovarian; 32.7 µM with EKVX NSCLC; > 57.6 µM with U251 CNS; 44.3 µM with KM12 colon. Also, the TGI was 52.4 µM in the assay with TK-10 renal, 47.5 µM in the assay with SNB-75 CNS, 46.4 µM in the assay with HOP-92 NSCLC and > 55.9 µM with 786-0 renal.

For the compound `CCCCCCCC(=O)OC[n+]1cccc(-c2c(COC(=O)NC(C)C)c(COC(=O)NC(C)C)c3n2CCC3)c1`, the TGI with SK-OV-3 ovarian, in the assay on SK-MEL-5 melanoma, in the assay on OVCAR-5 ovarian, in the assay with EKVX NSCLC, in the assay on U251 CNS and in the assay on KM12 colon was > 100 µM in each case. Also, the TGI in the assay on TK-10 renal, with SNB-75 CNS, in the assay with HOP-92 NSCLC and in the assay with 786-0 renal was > 100 µM each time.

Regarding `CCOC(=O)C(=O)Nc1nc2ccc(OC)cc2s1`, the TGI in the assay on SK-OV-3 ovarian, in the assay with SK-MEL-5 melanoma, with OVCAR-5 ovarian, with EKVX NSCLC, in the assay with U251 CNS and with KM12 colon was > 100 µM throughout. In addition, the TGI in the assay on TK-10 renal, in the assay with SNB-75 CNS, with HOP-92 NSCLC and in the assay with 786-0 renal was > 100 µM throughout.

In the case of `COc1cc(C(=O)/C=C/c2c(C)n([O-])c3ccc(Cl)cc3[n+]2=O)cc(OC)c1OC`, the GI50 in the assay with SK-OV-3 ovarian was 24.9 µM; in the assay with SK-MEL-5 melanoma it was 12.1 µM; with OVCAR-5 ovarian, 27 µM; in the assay with EKVX NSCLC, 8.46 µM; in the assay on U251 CNS it was 4.52 µM; with KM12 colon, 23.2 µM. Also, the GI50 was 7.83 µM in the assay on TK-10 renal, 5.18 µM in the assay with SNB-75 CNS, 4.47 µM in the assay on HOP-92 NSCLC and 13.2 µM in the assay with 786-0 renal. Besides, the TGI is > 100 µM with SK-OV-3 ovarian; > 100 µM with SK-MEL-5 melanoma; > 100 µM in the assay with OVCAR-5 ovarian; > 100 µM with EKVX NSCLC; 72.3 µM in the assay with U251 CNS; > 100 µM with KM12 colon. Further, the TGI in the assay with TK-10 renal is > 100 µM; with SNB-75 CNS it was > 100 µM; with HOP-92 NSCLC, > 100 µM; with 786-0 renal, 92.4 µM.
